Experimental data published in BindingDB's records for doi:10.1021/jm00099a027 (Smithkline Beecham Pharmaceuticals, 1992).
Bridge positions count the residues as written; N and C are the ends. Square brackets hold non-standard residues; d marks the D form. Peptide text beside a SMILES is read from it. NMeR = CN[C@@H](CCCNC(=N)N)C(=O)O

Assay: Inhibition of ADP-induced platelet aggregation in canine platelet-rich plasma

For CC(=O)N(C)C(CCCNC(=N)N)C(=O)NCC1=CC(CC(=O)O)C(=O)N(c2ccccc2)CC1 (configuration not stated), the IC50 was 720 nM.

With CC(=O)N[C@H]1CSSC[C@@H](C(N)=O)NC(=O)[C@H](CC(=O)O)NC(=O)CNC(=O)[C@H](CCCN=C(N)N)N(C)C1=O [SKF-106760] (Ac-C[NMeR]GDC-NH2; disulfide 1-5) the IC50 was 360 nM.
